Assay results taken from patent US12421271B2, “Solid forms of (2S,3S,4S,5R,6S)-3,4,5-trihydroxy-6-(((4AR, 10AR)-7-hydroxy-1-propyl-1,2,3,4,4A,5,10,10A-octahydrobenzo[g]quinolin-6-yl)oxy)tetrahydro-2H-pyran-2-carboxylic acid” (H. Lundbeck A/S, priority 2019, dated 2025).
Where a name gives a salt, the structure may show the parent alone.

Key:
[1] = PK experiments in Wistar rats, plasma compound (I) after oral dosing of prodrugs; type: in vivo, rat; conditions: FIG. 1, doses equal to 287 μg/kg of compound (I)
Method: Plasma was placed on water-ice following collection. Final storage at approximately −70° C.
Mobile phase B: Acetonitrile. […] Flow rate 0.5 mL/min.
The rats had unrestricted access to the diet.
Mobile phase B: Acetonitrile+0.2% formic acid. […] Flow rate 0.3 mL/min.
Dosing and blood sampling for compound (Ic): Han Wistar rats were supplied by Envigo, UK. […] The rats received a standard laboratory diet Teklad 2014C. The rats had unrestricted access to the diet.

[2] = Dynamic vapor sorption (DVS); type: physicochemical; conditions: for Hygroscopicity / behaviour towards humidity (DVS), in words: DH1: 5-80% RH, HH: 20-95% RH, K^+ salt: two cycles
Method: Dynamic vapor sorption (DVS) was further used to evaluate selected solid forms. Hygroscopicity and dehydration behavior can be investigated by DVS analysis. DVS experiments were performed using a DVS Advantage 01 instrument from Surface Measurement Systems. Samples of 4-10 mg of the solid forms were used for the analysis. […]

[3] = Stability studies of solid forms in sealed polyethylene bags (appearance, LC-UV, Karl Fischer water, XRPD); type: physicochemical; conditions: for Overall outcome of stability testing, in words: 25° C./60% RH and 40° C./75% RH; for Physical form: XRPD
Method: The substances were packed individually in sealed polyethylene bags, with a carton box as a secondary packaging material. During stability the different batches were tested for visual appearance, assay (anhydrous i.e. calculated as water free compound), impurities and water content. In addition, XRPD was been performed as described in Example 3 at selected time points.
LC-UV was run on Agilent HPLC consisting of Agilent 1200 HPLC or equivalent including autosampler and DAD detector (operating at 278 nm).
LC-conditions: The column was Synergi Polar-RP 4 μm; 4.6×150 mm operating at 40° C. with 1.0 ml/min of a binary gradient consisting of water/acetonitrile+[…] (90:10) (A) and water/acetonitrile+[…] (35:65) (B).
(§1) The amount of impurities was determined as % area of the peak of impurity relative to the area of the main peak.
The water content was determined by coulometric Karl Fischer titration according to the European Pharmacopoeia, chapter 2.5.32 (Metrohm 874 Oven Sample Processor and Metrohm 851 KF Coulometer). The water content was evaporated by heating samples to 150° C. and the water vapor was transferred by nitrogen to the titration chamber where it was titrated to endpoint using Hydranal Coulomat AG Oven (article number 34739) titration reagent.

[4] = Stress stability, open dishes in the dark, LC-UV impurities; type: physicochemical; conditions: open dish, % area by LC-UV
Method: For the stress stability studies, the substances were stored in open dishes in the dark at 40° C./75% RH, 60° C. and 60° C./80% RH.
as §1
The stress stability testing was performed as described above, and the amount of degradation products were determined based on the LC-UV method described above.

[5] = Grinding, pressure and milling followed by XRPD; type: physicochemical; conditions: for Crystallinity by XRPD after pressure: DH1: 300 PSI for 5 minutes, K^+ salt: IR-press for 5 minutes; for Crystallinity by XRPD after grinding: grinded by hand with mortar and pestle; for Crystallinity by XRPD after subsequent storage of treated sample: 95% RH for 1 week
Method: A sample of the heptahydrate was grinded by hand using mortar and pestle for 2 minutes, and subsequently analyzed by XRPD. […] The samples were analysed by XRPD after the treatment. Subsequently, the samples were placed at 95% RH for 1 week and reanalysed by XRPD.

[6] = tested on: rat locomotor activity; test: Rat locomotor activity (hyperactivity) assay, open field, with PK/PD; type: in vivo
Method: Mass spectrometer (UPCLC-MS/MS) Waters Acquity I-Class-Waters Xevo TQ-S. Analytical column Acquity HSS T3 C18 50×2.1 mm, 1.8 μm. Mobile phase A: 10 mM NH4—Formate 0.2% formic acid:Acetonitril (95:5). Mobile phase B: 10 mM NH4—Formate 0.2% formic acid:Acetonitril (5:95). Gradient run from 95/5% to 5/95% in 2.40 minutes. Flow rate 0.3 mL/min. MRM detection of test items and the added analytical standards.
Animals for the study were as described in Example 10. Additionally, rats were administered a single dose of apomorphine subcutaneously.
In total, 206 male CD rats (Charles River, Germany) weighing 200-250 grams (165-190 grams upon arrival) were used in the study. Animals were housed at a standard temperature (22±1° C.) and in a light-controlled environment (lights on from 7 am to […]) with ad libitum access to food and water. The experiment described below was performed in accordance with the standard operating procedures of Charles River Discovery Research Services Finland Ltd. and in accordance with the national Animal Experiment Board of Finland (Eläinkoelautakunta, ELLA) authority on animal testing.
The test device is a square Plexiglass-arena (measuring 40×40×40 cm), in which the movement paths of the rats are recorded by an activity monitor (Med. Associates Inc.). Before the test period is initiated, rats are habituated to their test cage for 60 minutes. Upon completion of habituation, animals were treated with either compound or vehicle and placed back into the open field apparatus. The main test parameter measured is ambulatory distance (recorded in 5-minute segments). Overall time of measurement after receiving initial treatment was 360 minutes. Total follow up period in the study was 420 min, including 60 min of habituation.

Hygroscopicity / behaviour towards humidity (DVS), in words [2] | Water content, % ([3]; 25° C./60% RH, 6 months) | Physical form ([3]; 25° C./60% RH, 6 months) | Water content, % ([3]; 25° C./60% RH, Initial) | Physical form ([3]; 25° C./60% RH, Initial) | Water content, % ([3]; 40° C./75% RH, 6 months) | Physical form ([3]; 40° C./75% RH, 6 months) | Water content, % ([3]; 40° C./75% RH, Initial) | Physical form ([3]; 40° C./75% RH, Initial) | Water content, % ([3]; 25° C./60% RH, 3 months) | Water content, % ([3]; 25° C./60% RH, 9 months) | Physical form ([3]; 25° C./60% RH, 9 months) | Water content, % ([3]; 25° C./60% RH, 18 months) | Water content, % ([3]; 40° C./75% RH, 3 months) | SMILES | Crystallinity by XRPD after pressure [5] | Crystallinity by XRPD after grinding [5] | other results
 |  |  |  |  |  |  |  |  |  |  |  |  |  | CCCN1CCC[C@@H]2Cc3c(ccc4c3OCO4)C[C@H]21 [Compound (Ib)] |  |  | Plasma profile of compound (I) after oral dosing, in words [1]: early and high peak concentrations
non-hygroscopic | 7.6% | DH1 | 7.6% | DH1 | 7.5% | DH1 | 7.6% | DH1 |  |  |  |  |  | CCCN1CCC[C@@H]2Cc3c(ccc(O)c3O[C@@H]3O[C@H](C(=O)O)[C@@H](O)[C@H](O)[C@H]3O)C[C@H]21 [DH1, (2S,3S,4S,5R,6S)-3,4,5-trihydroxy-6-(((4aR,10aR)-7-hydroxy-1-propyl-1,2,3,4,4a,5,10,10a-octahydrobenzo[g]quinolin-6-yl)oxy)tetrahydro-2H-pyran-2-carboxylic acid] | did not show sign of decreased crystallinity | did not show sign of decreased crystallinity | Water absorbed or desorbed (DVS) ([2]; humidity range 5-90% RH): Less than 0.1%; Overall outcome of stability testing, in words ([3]; listed as dihydrate): no changes in appearance, water content or physical form (XRPD); Water content, % ([3]; 25° C./60% RH, 4 months): 7.6%; Physical form ([3]; 25° C./60% RH, 4 months): DH1; Water content, % ([3]; 25° C./60% RH, 10 months): 7.4%; Water content, % ([3]; 40° C./75% RH, 4 months): 7.4%; Physical form ([3]; 40° C./75% RH, 4 months): DH1; Total sum of impurities after 6 months storage ([4]; 40° C./75% RH, listed as Dihydrate): 0.05%; Total sum of impurities after 6 months storage ([4]; 60° C., listed as Dihydrate): 1.0%; Total sum of impurities after 6 months storage ([4]; 60° C./80% RH, listed as Dihydrate): 0.05%; Crystallinity by XRPD after milling ([5]; milled vs un-milled material): no apparent change in crystallinity
stable towards change in humidity | 0.17% | Alfa form | 0.11% | Alfa form | 0.25% | Alfa form | 0.11% | Alfa form | 0.22% | <0.10% | Alfa form | 0.23% | 0.38% | CCCN1CCC[C@@H]2Cc3c(ccc(O)c3O[C@@H]3O[C@H](C(=O)O)[C@@H](O)[C@H](O)[C@H]3O)C[C@H]21 [K^+ salt, (2S,3S,4S,5R,6S)-3,4,5-trihydroxy-6-(((4aR,10aR)-7-hydroxy-1-propyl-1,2,3,4,4a,5,10,10a-octahydrobenzo[g]quinolin-6-yl)oxy)tetrahydro-2H-pyran-2-carboxylic acid] | some broadening of the XRPD reflections | severe broadening of the XRPD reflections | Weight change (DVS) ([2]; at 80% RH): up to 0.6%; Further weight change (DVS) ([2]; at 90% RH): 1%; Overall outcome of stability testing, in words ([3]; listed as potassium salt): remained in the same physical form; Water content, % ([3]; 25° C./60% RH, 13 months): <0.10%; Physical form ([3]; 25° C./60% RH, 13 months): Alfa form; Physical form ([3]; 25° C./60% RH, 18 months): Alfa form; Total sum of impurities after 6 months storage ([4]; 40° C./75% RH, listed as Potassium salt): 0.10%; Total sum of impurities after 6 months storage ([4]; 60° C., listed as Potassium salt): 0.10%; Total sum of impurities after 6 months storage ([4]; 60° C./80% RH, listed as Potassium salt): 1.0%; Crystallinity by XRPD after subsequent storage of treated sample [5]: regained crystallinity after storage at high humidity
 |  |  |  |  |  |  |  |  |  |  |  |  |  | CN1CCc2cccc3c2[C@H]1Cc1ccc(O)c(O)c1-3 [apomorphine, reference compound] |  |  | Relationship of behavioral effect and plasma concentration ([6]; (Id) 100 μg/kg p.o. (FIG. 4), apomorphine 3 mg/kg s.c. (FIG. 5)): correlation between plasma concentrations of apomorphine and hyperactive behavior; Start of locomotor effect post-administration ([6]; (Id) 10 to 300 μg/kg p.o., apomorphine 3 mg/kg s.c., pramipexole 0.3 mg/kg s.c., FIG. 2): immediate; Time post administration at which hyperactivity is gone ([6]; apomorphine 3 mg/kg s.c., 150-minute time point): 1.5 h

SMILES | Hygroscopicity / behaviour towards humidity (DVS), in words [2] | Water content, % ([3]; 25° C./60% RH, 6 months) | Physical form ([3]; 25° C./60% RH, 6 months) | Water content, % ([3]; 25° C./60% RH, Initial) | Physical form ([3]; 25° C./60% RH, Initial) | Water content, % ([3]; 40° C./75% RH, 6 months) | Physical form ([3]; 40° C./75% RH, 6 months) | Water content, % ([3]; 40° C./75% RH, Initial) | Physical form ([3]; 40° C./75% RH, Initial) | Water content, % ([3]; 25° C./60% RH, 3 months) | Water content, % ([3]; 25° C./60% RH, 9 months) | Physical form ([3]; 25° C./60% RH, 9 months) | Water content, % ([3]; 25° C./60% RH, 18 months) | Water content, % ([3]; 40° C./75% RH, 3 months) | Crystallinity by XRPD after pressure [5] | Crystallinity by XRPD after grinding [5] | other results
CCCN1CCC[C@@H]2Cc3c(ccc(O)c3O[C@@H]3O[C@H](C(=O)O)[C@@H](O)[C@H](O)[C@H]3O)C[C@H]21 [HH, (2S,3S,4S,5R,6S)-3,4,5-trihydroxy-6-(((4aR,10aR)-7-hydroxy-1-propyl-1,2,3,4,4a,5,10,10a-octahydrobenzo[g]quinolin-6-yl)oxy)tetrahydro-2H-pyran-2-carboxylic acid] | absorbs and desorbs water at humidity between 20% RH and 95% RH without changing the crystal form | 20.0% |  | 21.6% |  | 7.6% |  | 21.6% |  | 22.3% | 21.6% | Form C | 20.9% | 7.6% |  |  | Behaviour at low humidity (DVS), in words ([2]; humidity below 20%): changes into other less hydrated forms; Overall outcome of stability testing, in words [3]: Changes in visual appearance, water content and physical form (XRPD) were seen; Water content, % ([3]; 25° C./60% RH, 12 months): 15.0%; Physical form ([3]; 40° C./75% RH, 3 months): DH1; Total sum of impurities after 6 months storage ([4]; 40° C./75% RH, listed as Heptahydrate): <0.05%; Total sum of impurities after 6 months storage ([4]; 60° C., listed as Heptahydrate): 4.3%; Total sum of impurities after 6 months storage ([4]; 60° C./80% RH, listed as Heptahydrate): <0.05%; Crystallinity by XRPD after subsequent storage of treated sample ([5]; listed as heptahydrate): regained crystallinity after storage; Crystallinity by XRPD after grinding ([5]; listed as heptahydrate): reflections became a bit broader and an amorphous halo became visible
